Data from patent publication US8052961B2, “Highly fluorinated β-amino acids and methods of making and using same” (University of Utah Foundation, priority 2006, dated 2011).

Tests used:
[1] = 1-octanol/water partition coefficient (Poct) of tripeptides
Description: The 1-octanol/water partition coefficients (Poct) of the two tripeptides were evaluated.
To 20 mg of peptide 4 or 5 were added 2 mL of water and 2 mL of 1-octanol. The resulting mixture was shaken with a mixer for 10 min. After the aqueous and the organic phases were fully separated, 50 μL of solution was taken out from each phase for HPLC analysis. To a mixture of 200 μL aqueous solution and 200 μL 1-octanol solution were added 1.8 mL of water and 1.8 mL of 1-octanol. The resulting mixture was shaken with a mixer for 10 min. After the phases were fully separated, 50 μL of solution was taken out from each phase for reversed-phases HPLC analysis.

[2] = cited from earlier work

| melting point [°C] | Compound | further results |
| --- | --- | --- |
| 182 to 184 | NCC(COC(C(F)(F)F)(C(F)(F)F)C(F)(F)F)(COC(C(F)(F)F)(C(F)(F)F)C(F)(F)F)C(=O)O |  |
| 104 to 105 | O=C(NCC(COC(C(F)(F)F)(C(F)(F)F)C(F)(F)F)(COC(C(F)(F)F)(C(F)(F)F)C(F)(F)F)C(=O)O)OCC1c2ccccc2-c2ccccc21 |  |
| 128 to 130 | CC(C)(C)OC(=O)NCC(COC(C(F)(F)F)(C(F)(F)F)C(F)(F)F)(COC(C(F)(F)F)(C(F)(F)F)C(F)(F)F)C(=O)O |  |
|  | NC(=O)CNC(=O)C(CNC(=O)CNC=O)(COC(C(F)(F)F)(C(F)(F)F)C(F)(F)F)COC(C(F)(F)F)(C(F)(F)F)C(F)(F)F [tripeptide 4, Formyl-Gly-βFa-Gly-Amide] | logP at 10 min [1]: > 1 |
|  | octreotide | in vivo half-life (t1/2) [2]: 2 h |
